# Reference: patent publication US20170001990A1 (Genentech, Inc., priority 2014, published 2017)
# Several values for one entry are separate records, joined by “and”; a condition that tells them apart may be missing. Identical values can stand only once.
# Target: Human recombinant carboxy-terminal his-tagged LDHA (amino acids 2-332) (Homo sapiens, UniProt P00338)
# Experiment: LDHA enzyme inhibition assay (NADH fluorescence)
# Details: LDHA IC50 (μM), 1 nM LDHA, NADH and pyruvate, stereochemistry of tested sample given
row,SMILES,IC50
1,"CN(c1ccc(F)cc1)c1cccc(C2(c3ccsc3)CC(=O)C(Sc3ccccc3Cl)C(=O)N2)n1 (single isomer, unassigned) [Example 265, 3-((2-chlorophenyl)thio)-6-(6-((4-fluorophenyl) (methyl)amino)pyridin-2-yl)-6-(thiophen-3-yl) piperidine-2,4-dione]",0.022 µM
2,"CN(c1ccc(F)cc1)c1cccc(C2(c3ccsc3)CC(=O)C(Sc3ccccc3Cl)C(=O)N2)n1 (single isomer, unassigned) [Example 266, 3-((2-chlorophenyl)thio)-6-(6-((4-fluorophenyl) (methyl)amino)pyridin-2-yl)-6-(thiophen-3-yl) piperidine-2,4-dione]",0.099 µM
3,"O=C1CC(c2ccsc2)(c2cccc(CCc3ccc(F)cc3)n2)NC(=O)C1Sc1ccccc1Cl (single isomer, unassigned) [Example 268, 3-((2-chlorophenyl)thio)-6-(6-(4-fluorophenethyl)pyridin-2-yl)-6-(thiophen-3-yl)piperidine-2,4-dione]",0.402 µM
4,"O=C1CC(c2ccsc2)(c2cccc(Cc3ccc(F)c(F)c3)n2)NC(=O)C1Sc1ccccc1Cl (single isomer, unassigned) [Example 281, 3-((2-chlorophenyl)thio)-6-(6-(3,4-difluorobenzyl)pyridin-2-yl)-6-(thiophen-3-yl)piperidine-2,4-dione]",0.189 µM
5,"O=C1CC(c2ccsc2)(c2cccc(Cc3ccc(F)c(F)c3)n2)NC(=O)C1Sc1ccccc1Cl (single isomer, unassigned) [Example 282, 3-((2-chlorophenyl)thio)-6-(6-(3,4-difluorobenzyl)pyridin-2-yl)-6-(thiophen-3-yl)piperidine-2,4-dione]",0.012 µM
6,"COc1cc(Cc2cccc(C3(c4ccsc4)CC(=O)C(Sc4ccccc4Cl)C(=O)N3)n2)ccc1F (single isomer, unassigned) [Example 283, 3-((2-chlorophenyl)thio)-6-(6-(4-fluoro-3-methoxy-benzyl)pyridin-2-yl)-6-(thiophen-3-yl)piperidine-2,4-dione]",0.037 µM
7,"COc1cc(Cc2cccc(C3(c4ccsc4)CC(=O)C(Sc4ccccc4Cl)C(=O)N3)n2)ccc1F (single isomer, unassigned) [Example 284, 3-((2-chlorophenyl)thio)-6-(6-(4-fluoro-3-methoxy-benzyl)pyridin-2-yl)-6-(thiophen-3-yl)piperidine-2,4-dione]",0.041 µM
8,"O=C1CC(c2ccsc2)(c2cccc(NCc3ccc(F)cc3)n2)NC(=O)C1Sc1ccccc1Cl (single isomer, unassigned) [Example 285, 3-((2-chlorophenyl)thio)-6-(6-((4-fluorobenzyl)amino)pyridin-2-yl)-6-(thiophen-3-yl)piperidine-2,4-dione]",0.01 µM
9,"O=C1CC(c2ccsc2)(c2cccc(OCc3ccc(F)cc3)n2)NC(=O)C1Sc1ccccc1Cl (single isomer, unassigned) [Example 289, 3-((2-chlorophenyl)thio)-6-(6-((4-fluorobenzyl)oxy)pyridin-2-yl)-6-(thiophen-3-yl)piperidine-2,4-dione]",0.022 µM
10,"O=C1CC(c2ccsc2)(c2cccc(NCc3ccc(F)cc3)n2)NC(=O)C1Sc1ccccc1Cl (single isomer, unassigned) [Example 291, 3-((2-chlorophenyl)thio)-6-(6-((4-fluorobenzyl)amino)pyridin-2-yl)-6-(thiophen-3-yl)piperidine-2,4-dione]",0.093 µM
11,"O=C1CC(c2ccsc2)(c2cccc(NCc3ccc(F)cc3)n2)NC(=O)C1Sc1ccccc1Cl (single isomer, unassigned) [Example 292, 3-((2-chlorophenyl)thio)-6-(6-((4-fluorobenzyl)amino)pyridin-2-yl)-6-(thiophen-3-yl)piperidine-2,4-dione]",0.037 µM
12,"O=C1CC(c2ccsc2)(c2cccc(CCc3ccc(F)cc3)n2)NC(=O)C1Sc1ccccc1Cl (single isomer, unassigned) [Example 293, 3-((2-chlorophenyl)thio)-6-(6-(4-fluorophenethyl)pyridin-2-yl)-6-(thiophen-3-yl)piperidine-2,4-dione]",0.091 µM
13,"O=C1CC(c2ccsc2)(c2cccc(CCc3ccc(F)cc3)n2)NC(=O)C1Sc1ccccc1Cl (single isomer, unassigned) [Example 294, 3-((2-chlorophenyl)thio)-6-(6-(4-fluorophenethyl)pyridin-2-yl)-6-(thiophen-3-yl)piperidine-2,4-dione]",0.036 µM
14,"O=C1CC(c2ccsc2)(c2cccc(OCc3ccc(F)cc3)n2)NC(=O)C1Sc1ccccc1Cl (single isomer, unassigned) [Example 298, 3-((2-chlorophenyl)thio)-6-(6-((4-fluorobenzyl)oxy)pyridin-2-yl)-6-(thiophen-3-yl)piperidine-2,4-dione]",0.063 µM
15,"COc1ccccc1Oc1cccc(C2(c3ccsc3)CC(=O)C(Sc3ccccc3Cl)C(=O)N2)n1 (single isomer, unassigned) [Example 337, 5-(2-chlorophenyl)sulfanyl-4-hydroxy-2-[6-(2-methoxyphenoxy)-2-pyridyl]-2-(3-thienyl)-1,3-dihydropyridin-6-one]",0.021 µM
16,"C[C@H](Nc1cccc(C2(c3ccsc3)CC(=O)C(Sc3ccccc3Cl)C(=O)N2)n1)c1ccc(F)cc1 (stereo in doubt) [Example 303, 3-((2-chlorophenyl)thio)-6-(6-((1-(4-fluorophenyl)ethyl)amino)pyridin-2-yl)-6-(thiophen-3-yl) piperidine-2,4-dione]",0.434 µM

row,SMILES,IC50
1,"C[C@@H](CC1CC1)Oc1cccc(C2(c3ccsc3)CC(=O)C(Sc3ccccc3Cl)C(=O)N2)n1 (stereo in doubt) [Example 322, 3-((2-chlorophenyl)thio)-6-(6-((1-cyclopropyl-propan-2-yl)oxy)pyridin-2-yl)-6-(thiophen-3-yl) piperidine-2,4-dione]",0.012 µM
2,"O=C1CC(c2ccsc2)(c2cccc(Br)n2)NC(=O)C1Sc1ccccc1Cl (centres unmarked) [Example 1, 6-(6-bromo-2-pyridyl)-3-(2-chlorophenyl)sulfanyl-6-(3-thienyl)piperidine-2,4-dione]",0.006 µM
3,"CC(C)Oc1cccc(C2(c3ccsc3)CC(=O)C(Sc3ccccc3Cl)C(=O)N2)n1 (centres unmarked) [Example 2, 3-(2-chlorophenyl)sulfanyl-6-(6-isopropoxy-2-pyridyl)-6-(3-thienyl)piperidine-2,4-dione]",0.082 µM
4,"O=C1CC(c2ccsc2)(c2cccc(Cc3cccc(F)c3)n2)NC(=O)C1Sc1ccccc1Cl (centres unmarked) [Example 5, 3-(2-chlorophenyl)sulfanyl-6-[6-[(3-fluorophenyl)methyl]-2-pyridyl]-6-(3-thienyl)piperidine-2,4-dione]",0.028 µM and 0.009 µM and 0.066 µM
5,"CC1CN(c2ccc(C3(c4ccsc4)CC(=O)C(Sc4ccccc4Cl)C(=O)N3)cc2)CCO1 (centres unmarked) [Example 7, 3-(2-chlorophenyl)sulfanyl-6-[4-(2-methylmorpholin-4-yl)phenyl]-6-(3-thienyl)piperidine-2,4-dione]",0.009 µM
6,"O=C1CC(c2ccc(C3=CCCCC3)cc2)(c2ccsc2)NC(=O)C1Sc1ccccc1Cl (centres unmarked) [Example 8, 3-(2-chlorophenyl)sulfanyl-6-[4-(cyclohexen-1-yl)phenyl]-6-(3-thienyl)piperidine-2,4-dione]",0.004 µM
7,"CN1C(=O)C(Sc2ccccc2Cl)C(=O)CC1(c1ccsc1)c1cccc(Nc2ccc(F)cc2)n1 (centres unmarked) [Example 11, 3-(2-chlorophenyl)sulfanyl-6-[6-(4-fluoroanilino)-2-pyridyl]-1-methyl-6-(3-thienyl)piperidine-2,4-dione]",0.002 µM
8,"CN1C(=O)C(Sc2ccccc2Cl)C(=O)CC1(c1ccsc1)c1cccc(Oc2ccc(F)cc2)n1 (centres unmarked) [Example 12, 3-(2-chlorophenyl)sulfanyl-6-[6-(4-fluorophenoxy)-2-pyridyl]-1-methyl-6-(3-thienyl)piperidine-2,4-dione]",0.027 µM
9,"CN1C(=O)C(Sc2ccccc2Cl)C(=O)CC1(c1ccsc1)c1ccccc1F (centres unmarked) [Example 13, 3-(2-chlorophenyl)sulfanyl-6-(2-fluorophenyl)-1-methyl-6-(3-thienyl)piperidine-2,4-dione]",0.058 µM
10,"O=C1CC(c2ccsc2)(c2cccc(OCCC3COC3)n2)NC(=O)C1Sc1ccccc1Cl (centres unmarked) [Example 16, 3-(2-chlorophenyl)sulfanyl-6-[6-[2-(oxetan-3-yl)ethoxy]-2-pyridyl]-6-(3-thienyl)piperidine-2,4-dione]",0.105 µM and 0.076 µM
11,"O=C1CC(c2ccsc2)(c2cccc(Oc3ccccc3-c3cn[nH]c3)n2)NC(=O)C1Sc1ccccc1Cl (centres unmarked) [Example 18, 3-(2-chlorophenyl)sulfanyl-6-[6-[2-(1H-pyrazol-4-yl)phenoxy]-2-pyridyl]-6-(3-thienyl)piperidine-2,4-dione]",0.012 µM
12,"O=C1CC(c2ccsc2)(c2cccc(OCCC3CC3(F)F)n2)NC(=O)C1Sc1ccccc1Cl (centres unmarked) [Example 20, 3-(2-chlorophenyl)sulfanyl-6-[6-[2-(2,2-difluorocyclopropyl)ethoxy]-2-pyridyl]-6-(3-thienyl)piperidine-2,4-dione]",0.039 µM
13,"Cn1nncc1-c1ccccc1Oc1cccc(C2(c3ccsc3)CC(=O)C(Sc3ccccc3Cl)C(=O)N2)n1 (centres unmarked) [Example 21, 3-(2-chlorophenyl)sulfanyl-6-[6-[2-(3-methyltriazol-4-yl)phenoxy]-2-pyridyl]-6-(3-thienyl)piperidine-2,4-dione]",0.119 µM
14,"CN1C(=O)C(Sc2ccccc2Cl)C(=O)CC1(c1ccsc1)c1cccc(OC2CCOCC2)c1 (centres unmarked) [Example 23, 3-(2-chlorophenyl)sulfanyl-1-methyl-6-(3-tetrahydropyran-4-yloxyphenyl)-6-(3-thienyl)piperidine-2,4-dione]",0.026 µM
15,"O=C1CC(c2ccsc2)(c2ccc(N3CCOCC3)c(Br)n2)NC(=O)C1Sc1ccccc1Cl (centres unmarked) [Example 25, 6-(6-bromo-5-morpholino-2-pyridyl)-3-(2-chlorophenyl)sulfanyl-6-(3-thienyl)piperidine-2,4-dione]",0.023 µM
16,"O=C1CC(c2ccsc2)(c2ccc(N3CCOCC3)c(Nc3ccc(F)cc3)n2)NC(=O)C1Sc1ccccc1Cl (centres unmarked) [Example 26, 3-(2-chlorophenyl)sulfanyl-6-[6-(4-fluoroanilino)-5-morpholino-2-pyridyl]-6-(3-thienyl)piperidine-2,4-dione]",0.038 µM
